Measurements taken from the NIST ThermoML archive (doi:10.1016/j.tca.2007.02.005).
± gives the expanded uncertainty stated by the source.

Tests used:
[1] = Molar enthalpy of transition or fusion; details: Crystal; DSC
[2] = Crystal; DTA

Row | Molar enthalpy of transition or fusion [1] | Normal melting temperature [2] | SMILES
1 | 7.73 ± 0.17 kcal/mol | 231.80 ± 2.1 °C | c1ccc(-c2nc[nH]c2-c2ccccc2)cc1 [4,5-diphenylimidazole]
2 | 8.92 ± 0.194 kcal/mol | 274.60 ± 2.1 °C | c1ccc(-c2nc(-c3ccccc3)c(-c3ccccc3)[nH]2)cc1 [2,4,5-triphenyl-1H-imidazole]
3 | 4.3 ± 0.105 kcal/mol | 60.90 ± 1.2 °C | CCn1cc[n+](C)c1.F[P-](F)(F)(F)(F)F [1-ethyl-3-methylimidazolium hexafluorophosphate]

Row | SMILES | Molar enthalpy of transition or fusion [1] | Normal melting temperature [2]
4 | c1ccc(-c2ncc[nH]2)cc1 [2-phenyl-1H-imidazole] | 4.26 ± 0.108 kcal/mol | 146.80 ± 2.1 °C
